In patent US20230279482A1, “COMPOSITIONS, METHODS AND USES FOR QUANTIFYING TRANSCRIPTION AND BIOSENSING OF SMALL MOLECULES USING A NOVEL TYPE VI CRISPR-CAS ASSAY” (THE REGENTS OF THE UNIVERSITY OF COLORADO, A BODY CORPORATE, priority 2020, published 2023):

Tests used:
crcB fluoride riboswitch [1] = test: SPRINT assay with fluoride riboswitch; format: biochemical, B. cereus
Procedure: SPRINT reactions. Pentauridine RNA oligonucleotides were labeled with carboxyfluorescein (FAM) or TEX 615 at the 5′-end and with Iowa Black FQ at the 3′-end. Fluorescence measurements were taken at wavelengths 490/525 nm (excitation/emission) when the FAM fluorophore was used. In reactions with flavin-containing ligands, TEX-labeled RNA oligos were used at the wavelengths 576/615 (excitation/emission). Fluorescence measurements were taken every 5 minutes.
For exemplary SPRINT assays, a master mix was first prepared and then mixed with the remaining reaction reagent components to yield a final reaction volume of 30 μL; fluorescent readings of the entire reaction volume were performed in Corning 384 Flat Bottom Black Polystyrol plates. This master mix (SPRINT buffer, 10×), for assays contemplated herein can include, but is not limited to: 700 mM Tris-HCl, pH 8.0, 700 mM NaCl, 1 mM EDTA, 140 mM β-mercaptoethanol, and 25 mM MgCl2. Aliquots of an exemplary 10× SPRINT buffer were stored at −20° C. and not allowed to undergo more than 10 freeze-thaw cycles.
The B. cereus crcB fluoride riboswitch is a regulatory switch that turns on expression of the fluoride efflux pump crcB via selectively binding fluoride over chloride. […] This may be explained in part by an observed inhibition of the assay at fluoride concentrations above 100 μM. […]

crcB fluoride riboswitch [2] = conditions: in-line probing; cited from earlier work
E. coli RNAP = E. coli RNAP (Escherichia coli, UniProt P0A8T7+P0A8V2); test: Two-batch protocol: transcription in presence of fluoride, wash, then Cas13a detection; format: biochemical; conditions: fluoride riboswitch template, FIG. 6C
Procedure: In another exemplary method, two-batch methods included, 30 μL in vitro transcription reactions carried out as described above but without addition of Cas13a, crRNA, labeled RNA oligos, RNase inhibitor. Then, the reaction was washed three times with 500 μL ddH2O using an centrifugal filter (0.5 ml, 10 kDa cutoff). After concentrating the solution to approximately 20 μL, aliquots of 6 μL were taken and added to a 24 μL of a SHERLOCK reaction (described below).
The B. cereus crcB fluoride riboswitch is a regulatory switch that turns on expression of the fluoride efflux pump crcB via selectively binding fluoride over chloride. […] This may be explained in part by an observed inhibition of the assay at fluoride concentrations above 100 μM. To understand whether this effect stems from inhibition of the E. coli RNAP or inhibition of Cas13a, SHERLOCK reactions without RNAP were conducted at varying concentrations of sodium fluoride (FIG. 6A). […] To measure the response of the RNAP to fluoride, an exemplary two-batch protocol was developed (FIG. 6B) to first transcribe RNA in presence of fluoride, then wash out the fluoride and add the washed transcripts to Cas13a. […] The two-batch assay could also be used to wash out Cas13a-inhibiting compounds after transcription that would otherwise interfere with the assay.

E. coli RNAP, sequence (P0A8V2 whole entry): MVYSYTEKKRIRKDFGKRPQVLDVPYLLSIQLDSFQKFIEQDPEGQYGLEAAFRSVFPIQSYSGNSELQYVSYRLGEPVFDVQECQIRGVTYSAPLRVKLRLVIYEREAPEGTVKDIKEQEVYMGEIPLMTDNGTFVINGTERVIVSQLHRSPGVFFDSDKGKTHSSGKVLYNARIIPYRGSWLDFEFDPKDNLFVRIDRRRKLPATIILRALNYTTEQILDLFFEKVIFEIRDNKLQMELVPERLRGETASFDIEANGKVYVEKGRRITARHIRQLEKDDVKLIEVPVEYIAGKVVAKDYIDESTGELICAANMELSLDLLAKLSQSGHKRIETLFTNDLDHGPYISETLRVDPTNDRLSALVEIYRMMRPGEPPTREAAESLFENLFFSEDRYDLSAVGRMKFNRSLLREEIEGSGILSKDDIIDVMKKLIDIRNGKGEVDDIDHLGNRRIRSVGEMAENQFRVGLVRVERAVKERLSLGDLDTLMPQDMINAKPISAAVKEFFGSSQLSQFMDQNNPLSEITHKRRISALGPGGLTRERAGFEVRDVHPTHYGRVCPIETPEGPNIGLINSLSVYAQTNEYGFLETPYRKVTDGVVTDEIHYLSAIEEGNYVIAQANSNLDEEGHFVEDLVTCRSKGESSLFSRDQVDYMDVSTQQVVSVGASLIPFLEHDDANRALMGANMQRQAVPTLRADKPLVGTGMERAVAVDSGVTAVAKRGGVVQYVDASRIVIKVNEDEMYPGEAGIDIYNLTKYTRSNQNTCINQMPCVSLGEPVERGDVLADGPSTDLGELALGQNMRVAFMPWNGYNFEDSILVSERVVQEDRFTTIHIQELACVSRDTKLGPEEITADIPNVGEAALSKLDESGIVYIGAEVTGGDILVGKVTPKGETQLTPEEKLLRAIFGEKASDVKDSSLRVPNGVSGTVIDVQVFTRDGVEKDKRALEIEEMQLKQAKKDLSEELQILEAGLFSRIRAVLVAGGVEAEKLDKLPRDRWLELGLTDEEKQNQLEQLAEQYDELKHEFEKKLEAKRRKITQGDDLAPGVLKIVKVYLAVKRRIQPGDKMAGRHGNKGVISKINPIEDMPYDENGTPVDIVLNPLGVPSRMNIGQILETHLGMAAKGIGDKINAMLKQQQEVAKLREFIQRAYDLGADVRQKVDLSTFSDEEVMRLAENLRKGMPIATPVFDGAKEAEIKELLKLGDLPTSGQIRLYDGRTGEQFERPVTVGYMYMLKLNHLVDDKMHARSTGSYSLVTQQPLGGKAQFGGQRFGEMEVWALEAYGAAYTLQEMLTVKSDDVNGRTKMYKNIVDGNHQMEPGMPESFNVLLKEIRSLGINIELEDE
E. coli RNAP, sequence (P0A7Z4 whole entry, further chain): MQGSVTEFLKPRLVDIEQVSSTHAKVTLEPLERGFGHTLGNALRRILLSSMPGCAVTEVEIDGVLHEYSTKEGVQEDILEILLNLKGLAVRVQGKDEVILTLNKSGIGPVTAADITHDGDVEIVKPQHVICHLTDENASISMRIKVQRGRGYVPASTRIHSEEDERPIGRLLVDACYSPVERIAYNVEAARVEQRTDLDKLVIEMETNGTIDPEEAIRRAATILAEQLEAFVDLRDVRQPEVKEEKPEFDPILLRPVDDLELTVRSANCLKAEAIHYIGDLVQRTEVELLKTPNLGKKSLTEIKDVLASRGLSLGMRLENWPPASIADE
E. coli RNAP, sequence (P0A800 whole entry, further chain): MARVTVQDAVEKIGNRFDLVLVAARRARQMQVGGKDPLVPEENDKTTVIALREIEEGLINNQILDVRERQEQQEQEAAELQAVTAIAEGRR
E. coli RNAP, sequence (P0A8T7 whole entry): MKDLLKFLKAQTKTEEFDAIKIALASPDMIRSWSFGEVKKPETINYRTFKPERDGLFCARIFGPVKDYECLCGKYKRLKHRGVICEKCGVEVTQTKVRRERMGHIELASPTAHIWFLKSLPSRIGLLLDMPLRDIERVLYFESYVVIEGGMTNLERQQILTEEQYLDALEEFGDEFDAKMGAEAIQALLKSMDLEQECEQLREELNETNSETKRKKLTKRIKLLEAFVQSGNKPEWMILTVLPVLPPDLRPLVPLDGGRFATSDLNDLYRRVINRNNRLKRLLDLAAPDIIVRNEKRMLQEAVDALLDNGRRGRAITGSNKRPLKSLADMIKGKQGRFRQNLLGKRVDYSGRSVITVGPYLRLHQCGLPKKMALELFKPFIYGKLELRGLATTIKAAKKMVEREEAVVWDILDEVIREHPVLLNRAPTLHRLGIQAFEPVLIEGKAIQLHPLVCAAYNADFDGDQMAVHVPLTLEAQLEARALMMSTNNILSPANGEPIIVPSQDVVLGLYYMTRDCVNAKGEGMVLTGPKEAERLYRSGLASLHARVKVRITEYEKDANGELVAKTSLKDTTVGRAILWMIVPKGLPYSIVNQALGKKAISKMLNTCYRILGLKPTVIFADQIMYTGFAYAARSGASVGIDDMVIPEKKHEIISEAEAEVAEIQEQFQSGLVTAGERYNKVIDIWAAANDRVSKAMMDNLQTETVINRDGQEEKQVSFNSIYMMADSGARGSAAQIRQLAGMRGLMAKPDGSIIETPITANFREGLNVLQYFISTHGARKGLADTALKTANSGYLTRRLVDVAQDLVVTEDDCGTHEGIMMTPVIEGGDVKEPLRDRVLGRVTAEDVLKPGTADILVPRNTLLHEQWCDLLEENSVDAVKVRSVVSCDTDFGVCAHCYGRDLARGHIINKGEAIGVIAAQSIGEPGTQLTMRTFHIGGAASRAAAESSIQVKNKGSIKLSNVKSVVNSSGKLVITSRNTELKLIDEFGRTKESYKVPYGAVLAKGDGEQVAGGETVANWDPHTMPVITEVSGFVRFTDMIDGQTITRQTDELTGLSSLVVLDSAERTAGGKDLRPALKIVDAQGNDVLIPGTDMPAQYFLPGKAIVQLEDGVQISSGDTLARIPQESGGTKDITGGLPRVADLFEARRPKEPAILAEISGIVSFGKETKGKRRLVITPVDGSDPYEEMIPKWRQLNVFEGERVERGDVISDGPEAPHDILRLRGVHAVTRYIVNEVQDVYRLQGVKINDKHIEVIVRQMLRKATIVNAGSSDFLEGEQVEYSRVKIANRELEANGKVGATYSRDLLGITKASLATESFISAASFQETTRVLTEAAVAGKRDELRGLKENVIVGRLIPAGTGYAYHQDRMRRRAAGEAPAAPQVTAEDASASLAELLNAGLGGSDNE

EC50 (crcB fluoride riboswitch [1]; FIG. 4C, read-out: T50 value): 11 ± 1 µM | concentration that drastically reduced transcriptional activity (E. coli RNAP): ≥ 125 µM | concentration up to which transcription is induced in a linear manner (E. coli RNAP): ≤ 100 µM
SMILES: [F-].[Na+] [fluoride, sodium fluoride]
fluoride concentration at which inhibition of the assay is observed (crcB fluoride riboswitch [1]; one-batch SPRINT): above 100 μM | Kd (crcB fluoride riboswitch [2]): ~60 µM
